Laboratory results published in PMC12638379, “An innovative approach to development of new pyrazolylquinolin-2-one hybrids as dual EGFR and BRAF^V600E inhibitors” (Molecular Diversity, 2025).
Read-outs that look alike come from different tables or passages of the source.

System: NCI 60 cancer cell lines
Assay: NCI anticancer screening over a panel of 60 cancer cells, single concentration 10 µM
Assay type: cell-based, human
Settings: Homo sapiens, read-out: Growth inhibition (GI %)
Method: Ten final compounds 4a–j and five intermediates 2a–e have been selected by the National Cancer Institute (NCI) for anticancer screening over a panel of 60 cancer cells that cover a variety of histological tissues, including the central nervous system, leukemia, lung, colon, kidney, ovary, breast, and prostate, using the protocol established by the National Cancer Institute (NCI). In a primary screening, each compound was screened at a concentration of 10 µM.
Compounds 2a-e and 4a-j were selected by the National Cancer Institute (NCI) according to the protocol of the Compound Evaluation Branch of the National Cancer Institute, Bethesda, USA, for in vitro anticancer screening which refers in turn to apoptotic activity. The methodology of the NCI anticancer screening has been described in detail elsewhere (http://www.dtp.nci.nih.gov).

## CC(=O)c1cnn(-c2cc(=O)[nH]c3ccccc23)c1C [Compound 2a, 4-(4-Acetyl-5-methyl-1H-pyrazol-1-yl)quinolin-2(1H)-one]
786-0, Renal cancer 786-0, 10 μM
  inhibition at 10 µM: < 5%
A498, Renal cancer A498, 10 μM
  inhibition at 10 µM: < 5%
A549, Non-small cell lung cancer A549/ATCC, 10 μM
  inhibition at 10 µM: 5.98%
ACHN, Renal cancer ACHN, 10 μM
  inhibition at 10 µM: 7.82%
BT-549, Breast cancer BT-549, 10 μM
  inhibition at 10 µM: 6.06%
CAKI-1, Renal cancer CAKI-1, 10 μM
  inhibition at 10 µM: 21.5%
CCRF-CEM, Leukemia CCRF-CEM, 10 μM
  inhibition at 10 µM: 11.3%
COLO 205, Colon cancer COLO 205, 10 μM
  inhibition at 10 µM: < 5%
DU-145, Prostate cancer DU-145, 10 μM
  inhibition at 10 µM: < 5%
EKVX, Non-small cell lung cancer EKVX, 10 μM
  inhibition at 10 µM: 54.4%
HCC 2998, Colon cancer HCC-2998, 10 μM
  inhibition at 10 µM: < 5%
HCT-15, Colon cancer HCT-15, 10 μM
  inhibition at 10 µM: < 5%
HCT-116, Colon cancer HCT-116, 10 μM
  inhibition at 10 µM: < 5%
HL-60, Leukemia HL-60(TB), 10 μM
  inhibition at 10 µM: 6.26%
HOP-62, Non-small cell lung cancer HOP-62, 10 μM
  inhibition at 10 µM: 22.9%
HOP-92, Non-small cell lung cancer HOP-92, 10 μM
  inhibition at 10 µM: 25.1%
HT-29, Colon cancer HT29, 10 μM
  inhibition at 10 µM: < 5%
Hs-578T, Breast cancer HS 578T, 10 μM
  inhibition at 10 µM: 8.26%
IGROV-1, Ovarian cancer IGROV1, 10 μM
  inhibition at 10 µM: 37.9%
K562, Leukemia K-562, 10 μM
  inhibition at 10 µM: 9.72%
KM12, Colon cancer KM12, 10 μM
  inhibition at 10 µM: < 5%
LOX IMVI, Melanoma LOX IMVI, 10 μM
  inhibition at 10 µM: 15.6%
Leukemia SR, 10 μM
  inhibition at 10 µM: 5.8%
MCF7, Breast cancer MCF7, 10 μM
  inhibition at 10 µM: 17.3%
MDA-MB-231, Breast Cancer MDA-MB 231/ATCC, 10 μM
  inhibition at 10 µM: 26.9%
MDA-MB-435, Melanoma MDA-MB-435, 10 μM
  inhibition at 10 µM: < 5%
MDA-MB-468, Breast cancer MDA-MB-468, 10 μM
  inhibition at 10 µM: < 5%
MOLT-4, Leukemia MOLT-4, 10 μM
  inhibition at 10 µM: 7.63%
Malme-3M, Melanoma MALME-3M, 10 μM
  inhibition at 10 µM: 11.3%
Melanoma M14, 10 μM
  inhibition at 10 µM: < 5%
NCI-H23, Non-small cell lung cancer NCI-H23, 10 μM
  inhibition at 10 µM: 10.3%
NCI-H226, Non-small cell lung cancer NCI-H226, 10 μM
  inhibition at 10 µM: 32.4%
NCI-H322M, Non-small cell lung cancer NCI-H322M, 10 μM
  inhibition at 10 µM: 16.1%
NCI-H460, Non-small cell lung cancer NCI-H460, 10 μM
  inhibition at 10 µM: < 5%
NCI-H522, Non-small cell lung cancer NCI-H522, 10 μM
  inhibition at 10 µM: 10.3%
NCI/ADR-RES, Ovarian cancer NCI/ADR-RES, 10 μM
  inhibition at 10 µM: 8.35%
OVCAR-3, Ovarian cancer OVCAR-3, 10 μM
  inhibition at 10 µM: < 5%
OVCAR-4, Ovarian cancer OVCAR-4, 10 μM
  inhibition at 10 µM: < 5%
OVCAR-5, Ovarian cancer OVCAR-5, 10 μM
  inhibition at 10 µM: < 5%
OVCAR-8, Ovarian cancer OVCAR-8, 10 μM
  inhibition at 10 µM: < 5%
Prostate cancer PC-3, 10 μM
  inhibition at 10 µM: 15.2%
RPMI-8226, Leukemia RPMI-8226, 10 μM
  inhibition at 10 µM: 26.6%
RXF 393, Renal cancer RXF 393, 10 μM
  inhibition at 10 µM: < 5%
SF-268, CNS Cancer SF-268, 10 μM
  inhibition at 10 µM: < 5%
SF-295, CNS Cancer SF-295, 10 μM
  inhibition at 10 µM: 6.24%
SF-539, CNS Cancer SF-539, 10 μM
  inhibition at 10 µM: 13%
SK-MEL-2, Melanoma SK-MEL-2, 10 μM
  inhibition at 10 µM: < 5%
SK-MEL-5, Melanoma SK-MEL-5, 10 μM
  inhibition at 10 µM: 11.9%
SK-MEL-28, Melanoma SK-MEL-28, 10 μM
  inhibition at 10 µM: < 5%
SK-OV-3, Ovarian cancer SK-OV-3, 10 μM
  inhibition at 10 µM: 20%
SN12C, Renal cancer SN12C, 10 μM
  inhibition at 10 µM: 8.07%
SNB-19, CNS Cancer SNB-19, 10 μM
  inhibition at 10 µM: 11.4%
SNB-75, CNS Cancer SNB-75, 10 μM
  inhibition at 10 µM: < 5%
SW-620, Colon cancer SW-620, 10 μM
  inhibition at 10 µM: < 5%
T47D, Breast cancer T-47D, 10 μM
  inhibition at 10 µM: 16.9%
TK-10, Renal cancer TK-10, 10 μM
  inhibition at 10 µM: < 5%
U-251, CNS Cancer U251, 10 μM
  inhibition at 10 µM: 8.86%
UACC-62, Melanoma UACC-62, 10 μM
  inhibition at 10 µM: 19.5%
UACC-257, Melanoma UACC-257, 10 μM
  inhibition at 10 µM: < 5%
UO-31, Renal cancer UO-31, 10 μM
  inhibition at 10 µM: 38.3%
